Here are results for two compounds from patent US20250073164A1, “IONIZABLE DISULFIDE LIPIDS AND LIPID NANOPARTICLES DERIVED THEREFROM” (PROVIDENCE THERAPEUTICS HOLDINGS INC., priority 2021, published 2025).

Series [1] can be described thus: Surface pKa of LNPs, TNS fluorescence assay. It is filed as physicochemical. To be noted: LNPs formed with the ionizable lipid, pH at 50% LNP protonation. As to the method:
The surface pKa values of LNPs were determined as follows. Briefly, solutions of 100 mM citrate buffer at, 100 mM Tris-HCl and 50 mM sodium bicarbonate-sodium hydroxide buffer were titrated to pH values varying by 1 from 3.0 to 11.0 and aliquoted into a clear 96-well plate. LNPs and 2-(p-toluidinyl)naphthalene-6-sulfonic acid (TNS) were diluted into these solutions to obtain a final concentration of 20 μM lipid and 6 μM TNS, respectively. Fluorescence intensity was read on a Glowmax discover plate reader at an excitation of 322 nm and an emission of 430 nm. pKa values were calculated as the pH corresponding to 50% LNP protonation, assuming minimum and maximum fluorescence values corresponded to zero and 100% protonation, respectively.

Series [2] can be described thus: Lipids stability characterized by 1H NMR. It is filed as physicochemical. On the set-up: key: +: the lipid is stable; Minor: the main characteristic peaks of the lipid are present, no major change of the ^1H NMR spectrum is observed, but some extra peaks appearance observed; Major: main the characteristic peaks of the lipid underwent transformation, some peaks can be missing or decreased in intensity, impurity peaks either increased in size or represent main peaks, as observed on ^1H NMR. As to the method: The lipids stability was evaluated by ^1H NMR at −20° C. and at room temperature. “+” means the lipid is stable, “Minor” means the main characteristic peaks of the lipid are present, no major change of the ^1H NMR spectrum is observed, but some extra peaks appearance observed. “Major” means main the characteristic peaks of the lipid underwent transformation, some peaks can be missing or decreased in intensity, impurity peaks either increased in size or represent main peaks, as observed on ^1H NMR. “n.d.” means “not determined”.

Series [3] relates to gp33 and gp34 specific T-cells. As to the kind of experiment: In vivo activity of LNPs: specific CD8 T-cells expansion in mice. To be noted: LNPs prepared using the compound, payload 3-GP mRNA (epitopes encoding gp33/34). As to the method:
LNPs prepared using compounds 100, 105, 106 and 109 respectively were evaluated for specific CD8 T-cells expansion in mice where the payload is 3-GP mRNA (comprising epitopes encoding gp33/34).

The structures appear in SMILES notation.

As to `CCCCCCCCCCCCCCC(/C=C(\C)CCC=C(C)C)OC(=O)CSSCC(=O)OCCCN(C)C` (centres unmarked) [Compound 100], the “Surface pKa” value in series [1] is on record as 7.5. In addition, in series [2] (room temperature), the “Lipids stability characterized by 1H NMR, Room Temperature 1 week” value was “+”; the “Lipids stability characterized by 1H NMR, Room Temperature 2 months” value was “Major”; the “Lipids stability characterized by 1H NMR, Room Temperature 2 weeks” value was “Minor”; the “Lipids stability characterized by 1H NMR, Room Temperature 3 weeks” value is listed as “Minor”. The “Lipids stability characterized by 1H NMR, Room Temperature 4 weeks” value in series [2] (room temperature) is reported as “Minor”. Further, the “Lipids stability characterized by 1H NMR, Room Temperature 3 months” value in series [2] (room temperature, 3 months) is on record as “Major”. In addition, the “Lipids stability characterized by 1H NMR, At −20° C.” value in series [2] (3 months) was “+”. Also, the “specific CD8 T-cells expansion” value in series [3] was “effective at expanding both gp33 and gp34 specific T-cells”.

For the compound `CCCCC/C=C\CCC(CCCCCCCCCCCCCC)C(CCCCCCCCCCCCCC)OC(=O)CCSSCCC(=O)OCCCN(C)C` (centres unmarked) [Compound 109, 3-(dimethylamino)propyl-3-[[3-[2-[(Z)-non-3-enyl]-1-tetradecyl-hexadeoxy]-3-oxo-propyl]disulfanyl]propanoate], the “Surface pKa” value in series [1] is reported as 7.0. Moreover, in series [2] (room temperature), the “Lipids stability characterized by 1H NMR, Room Temperature 1 week” value is “+”; the “Lipids stability characterized by 1H NMR, Room Temperature 2 months” value is listed as “+”; the “Lipids stability characterized by 1H NMR, Room Temperature 2 weeks” value was “+”; the “Lipids stability characterized by 1H NMR, Room Temperature 3 weeks” value is “+”. For the same compound, the “Lipids stability characterized by 1H NMR, Room Temperature 4 weeks” value in series [2] (room temperature) is reported as “+”. The “Lipids stability characterized by 1H NMR, At −20° C.” value in series [2] (3 months) is reported as “+”. For the same compound, the “specific CD8 T-cells expansion” value in series [3] was “effective at expanding both gp33 and gp34 specific T-cells”.
